ChEMBL document CHEMBL4627246, “Pyroglutamide-Based P2X7 Receptor Antagonists Targeting Inflammatory Bowel Disease” (J Med Chem, 2020)

Columns and labels:
Type in all cases: cell-based
[1] = tested on: SR; experiment: Cytotoxicity against human SR cells assessed as effect on cell growth at 10 uM incubated for 48 hrs by sulforhodamine B assay
[2] = tested on: EKVX; experiment: Cytotoxicity against human EKVX cells assessed as effect on cell growth at 10 uM incubated for 48 hrs by sulforhodamine B assay
[3] = tested on: K562; experiment: Cytotoxicity against human K562 cells assessed as effect on cell growth at 10 uM incubated for 48 hrs by sulforhodamine B assay; details: k562, 48 h
[4] = tested on: NCI-H322M; experiment: Cytotoxicity against human NCI-H322M cells assessed as effect on cell growth at 10 uM incubated for 48 hrs by sulforhodamine B assay
[5] = tested on: COLO 205; experiment: Cytotoxicity against human COLO205 cells assessed as effect on cell growth at 10 uM incubated for 48 hrs by sulforhodamine B assay; details: colo 205, 48 h
[6] = tested on: HCC 2998; experiment: Cytotoxicity against human HCC2998 cells assessed as effect on cell growth at 10 uM incubated for 48 hrs by sulforhodamine B assay; details: hcc 2998, 48 h
[7] = tested on: HCT-116; experiment: Cytotoxicity against human HCT116 cells assessed as effect on cell growth at 10 uM incubated for 48 hrs by sulforhodamine B assay; details: hct-116, 48 h
[8] = tested on: KM12; experiment: Cytotoxicity against human KM12 cells assessed as effect on cell growth at 10 uM incubated for 48 hrs by sulforhodamine B assay; details: km12, 48 h
[9] = tested on: SF-295; experiment: Cytotoxicity against human SF295 cells assessed as effect on cell growth at 10 uM incubated for 48 hrs by sulforhodamine B assay; details: sf-295, 48 h
[10] = tested on: SNB-75; experiment: Cytotoxicity against human SNB75 cells assessed as effect on cell growth at 10 uM incubated for 48 hrs by sulforhodamine B assay; details: snb-75, 48 h
[11] = tested on: Malme-3M; experiment: Cytotoxicity against human MALME-3M cells assessed as effect on cell growth at 10 uM incubated for 48 hrs by sulforhodamine B assay
[12] = tested on: SK-MEL-5; experiment: Cytotoxicity against human SK-MEL-5 cells assessed as effect on cell growth at 10 uM incubated for 48 hrs by sulforhodamine B assay; details: sk-mel-5, 48 h
[13] = tested on: UACC-257; experiment: Cytotoxicity against human UACC257 cells assessed as effect on cell growth at 10 uM incubated for 48 hrs by sulforhodamine B assay; details: uacc-257, 48 h
[14] = tested on: OVCAR-4; experiment: Cytotoxicity against human OVCAR4 cells assessed as effect on cell growth at 10 uM incubated for 48 hrs by sulforhodamine B assay; details: ovcar-4, 48 h
[15] = tested on: OVCAR-8; experiment: Cytotoxicity against human OVCAR8 cells assessed as effect on cell growth at 10 uM incubated for 48 hrs by sulforhodamine B assay; details: ovcar-8, 48 h
[16] = tested on: NCI/ADR-RES; experiment: Cytotoxicity against human NCI/ADR-RES cells assessed as effect on cell growth at 10 uM incubated for 48 hrs by sulforhodamine B assay
[17] = tested on: 786-0; experiment: Cytotoxicity against human 786-0 cells assessed as effect on cell growth at 10 uM incubated for 48 hrs by sulforhodamine B assay; details: 786-0, 48 h
[18] = tested on: A498; experiment: Cytotoxicity against human A498 cells assessed as effect on cell growth at 10 uM incubated for 48 hrs by sulforhodamine B assay; details: a498, 48 h
[19] = tested on: DU-145; experiment: Cytotoxicity against human DU145 cells assessed as effect on cell growth at 10 uM incubated for 48 hrs by sulforhodamine B assay; details: du-145, 48 h
[20] = tested on: MDA-MB-468; experiment: Cytotoxicity against human MDA-MB-468 cells assessed as effect on cell growth at 10 uM incubated for 48 hrs by sulforhodamine B assay; details: mda-mb-468, 48 h

Measured: Activity

O=C(Nc1ccc(Cl)cc1Cl)[C@@H]1CCC(=O)N1Cc1ccccc1Cl
Non-Toxic: [1] | [2] | [3] | [4] | [5] | [6] | [7] | [8] | [9] | [10] | [11] | [12] | [13] | [14] | [15] | [16] | [17] | [18] | [19] | [20]

CCCCCCN1C(=O)[C@@H]2CCC(=O)N2C1N(C)C (stereo not given in full)
Non-Toxic: [1] | [2] | [3] | [4] | [5] | [6] | [7] | [8] | [9] | [10] | [11] | [12] | [13] | [14] | [15] | [16] | [17] | [18] | [19] | [20]

CCCCCCN1C(=O)[C@@H]2C/C(=C\N(C)C)C(=O)N2C1N(C)C (stereo not given in full)
Non-Toxic: [1] | [2] | [3] | [4] | [5] | [6] | [7] | [8] | [9] | [10] | [11] | [12] | [13] | [14] | [15] | [16] | [17] | [18] | [19] | [20]

O=C(NCCc1ccccc1)[C@@H]1CCC(=O)N1Cc1ccc(Cl)cc1Cl
Non-Toxic: [1] | [2] | [3] | [4] | [5] | [6] | [7] | [8] | [9] | [10] | [11] | [12] | [13] | [14] | [15] | [16] | [17] | [18] | [19] | [20]

O=C(NCc1ccc(Cl)cc1Cl)c1ccccn1
Non-Toxic: [1] | [2] | [3] | [4] | [5] | [6] | [7] | [8] | [9] | [10] | [11] | [12] | [13] | [14] | [15] | [16] | [17] | [18] | [19] | [20]

O=C(NCc1ccc(Cl)cc1Cl)[C@@H]1CCC(=O)N1Cc1ccccc1
Non-Toxic: [1] | [2] | [3] | [4] | [5] | [6] | [7] | [8] | [9] | [10] | [11] | [12] | [13] | [14] | [15] | [16] | [17] | [18] | [19] | [20]

O=C1N[C@H](C(=O)NCc2ccc(Cl)cc2Cl)C/C1=C/NCc1ccc(Cl)cc1Cl
Non-Toxic: [1] | [2] | [3] | [4] | [5] | [6] | [7] | [8] | [9] | [10] | [11] | [12] | [13] | [14] | [15] | [16] | [17] | [18] | [19] | [20]
